Data taken from ChEMBL document CHEMBL5244280, “Evodiamine Lowers Blood Lipids by Up-Regulating the PPARγ/ABCG1 Pathway in High-Fat-Diet-Fed Mice” (J Nat Prod, 2021).
The source made the active and inactive calls. No cut-off for these calls is given here.

Columns and labels:
[1] = Toxicity against normal diet-fed ICR mouse assessed as effect on plasma total cholesterol content at 10 mg/kg, ig administered daily via gavage for 8 weeks by spectrophotometric analysis; type: organism-based; conditions: in vivo, po, 1344 h
Mus musculus [2] = test: Upregulation of SR-B1 protein expression in liver of high fat diet fed hyperlipidemic ICR mouse model at 10 mg/kg, ig administered daily via gavage for 8 weeks by western blotting analysis; type: functional, organism-based
Mus musculus [3] = test: Upregulation of SR-B1 protein expression in liver of normal diet fed ICR mouse at 10 mg/kg, ig administered daily via gavage for 8 weeks by western blotting analysis; type: functional, organism-based
Mus musculus [4] = test: Upregulation of ABCA1 mRNA expression in liver of high fat diet fed hyperlipidemic ICR mouse model at 10 mg/kg, ig administered daily via gavage for 8 weeks by qPCR analysis; type: functional, organism-based
[5] = Toxicity against normal diet-fed ICR mouse assessed as effect on plasma HDL-C content at 10 mg/kg, ig administered daily via gavage for 8 weeks by spectrophotometric analysis; type: organism-based; conditions: in vivo, po, 1344 h
[6] = molecular target: T1, Peroxisome proliferator-activated receptor gamma (Homo sapiens) (UniProt P37231); test: Agonist activity at human PPAR-gamma expressed in HEK293 cells co-transfected with luciferase reporter plasmid assessed as receptor transactivation at 10 uM incubated for 18 hrs by luciferase reporter gene assay relative to control; type: cell-based
T1 sequence (whole entry): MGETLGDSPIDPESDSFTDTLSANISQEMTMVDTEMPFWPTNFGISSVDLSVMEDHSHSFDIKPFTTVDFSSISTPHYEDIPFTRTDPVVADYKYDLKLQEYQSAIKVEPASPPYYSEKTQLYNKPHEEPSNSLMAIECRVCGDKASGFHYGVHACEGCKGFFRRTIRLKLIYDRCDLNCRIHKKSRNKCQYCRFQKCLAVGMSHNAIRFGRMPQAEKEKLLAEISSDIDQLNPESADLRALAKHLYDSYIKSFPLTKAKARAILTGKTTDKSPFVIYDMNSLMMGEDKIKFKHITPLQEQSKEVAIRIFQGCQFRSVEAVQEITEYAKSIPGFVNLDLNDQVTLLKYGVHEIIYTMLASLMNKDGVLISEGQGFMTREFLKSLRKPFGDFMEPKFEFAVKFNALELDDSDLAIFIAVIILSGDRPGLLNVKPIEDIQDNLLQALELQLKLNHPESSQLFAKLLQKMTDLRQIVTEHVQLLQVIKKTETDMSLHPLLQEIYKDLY

Mus musculus [7] = test: Protection against hyperlipidemia in high fat diet-fed hyperlipidemic ICR mouse model assessed as reduction in serum total cholesterol content at 10 mg/kg, ig administered daily via gavage for 8 weeks by spectrophotometric analysis; type: functional; conditions: po, 1344 h
[8] = Toxicity against normal diet-fed ICR mouse assessed as effect on plasma LDL-C content at 10 mg/kg, ig administered daily via gavage for 8 weeks by spectrophotometric analysis; type: organism-based; conditions: in vivo, po, 1344 h
[9] = Toxicity in normal diet fed ICR mouse assessed as ratio of spleen weight to body weight at 10 mg/kg, ig administered daily via gavage for 8 weeks (reference value: 0.42 +/-0.08); type: organism-based; conditions: in vivo, po, 1344 h
Mus musculus [10] = test: Protection against hyperlipidemia in high fat diet-fed hyperlipidemic ICR mouse model assessed as reduction in serum LDL-C content at 20 mg/kg, ig administered daily via gavage for 8 weeks by spectrophotometric analysis; type: functional, organism-based
[11] = Toxicity in high fat diet fed hyperlipidemic ICR mouse model assessed as ratio of kidney weight to body weight at 10 mg/kg, ig administered daily via gavage for 8 weeks (reference value: 1.34 +/-0.09); type: organism-based; conditions: in vivo, po, 1344 h
[12] = Toxicity in high fat diet fed hyperlipidemic ICR mouse model assessed as ratio of liver weight to body weight at 10 mg/kg, ig administered daily via gavage for 8 weeks (reference value: 4.23 +/-0.79); type: organism-based; conditions: in vivo, po, 1344 h
Mus musculus [13] = test: Upregulation of ABCG1 protein expression in liver of high fat diet fed hyperlipidemic ICR mouse model at 10 mg/kg, ig administered daily via gavage for 8 weeks by western blotting analysis; type: functional, organism-based
[14] = Toxicity in high fat diet fed hyperlipidemic ICR mouse model assessed as ratio of spleen weight to body weight at 10 mg/kg, ig administered daily via gavage for 8 weeks (reference value: 0.43 +/-0.11); type: organism-based; conditions: in vivo, po, 1344 h
Mus musculus [15] = test: Upregulation of SR-B1 mRNA expression in liver of high fat diet fed hyperlipidemic ICR mouse model at 10 mg/kg, ig administered daily via gavage for 8 weeks by qPCR analysis; type: functional, organism-based
Mus musculus [16] = test: Protection against hyperlipidemia in high fat diet-fed hyperlipidemic ICR mouse model assessed as reduction in hepatic total cholesterol content at 20 mg/kg, ig administered daily via gavage for 8 weeks by colorimetric assay; type: functional, organism-based
Mus musculus [17] = test: Protection against hyperlipidemia in high fat diet-fed hyperlipidemic ICR mouse model assessed as reduction in hepatic triglyceride content at 20 mg/kg, ig administered daily via gavage for 8 weeks by colorimetric assay; type: functional, organism-based
Mus musculus [18] = test: Upregulation of PPAR-gamma protein expression in liver of high fat diet fed hyperlipidemic ICR mouse model at 10 to 20 mg/kg, ig administered daily via gavage for 8 weeks by western blotting analysis; type: functional, organism-based; conditions: dose 10-20 mg/kg
[19] = Toxicity in normal diet fed ICR mouse assessed as liver histological changes at 10 mg/kg, ig administered daily via gavage for 8 weeks by Hematoxylin and eosin staining based analysis; type: organism-based; conditions: in vivo, po, 1344 h
Mus musculus [20] = test: Upregulation of NPC1 mRNA expression in liver of high fat diet fed hyperlipidemic ICR mouse model at 10 mg/kg, ig administered daily via gavage for 8 weeks by qPCR analysis; type: functional, organism-based
[21] = Toxicity in normal diet fed ICR mouse assessed as ratio of stomach weight to body weight at 10 mg/kg, ig administered daily via gavage for 8 weeks (reference value: 1.24 +/-0.41); type: organism-based; conditions: in vivo, po, 1344 h
Mus musculus [22] = test: Protection against hyperlipidemia in high fat diet-fed hyperlipidemic ICR mouse model assessed as reduction in serum LDL-C content at 10 mg/kg, ig administered daily via gavage for 8 weeks by spectrophotometric analysis; type: functional; conditions: po, 1344 h
Mus musculus [23] = test: Upregulation of ABCG5 protein expression in liver of high fat diet fed hyperlipidemic ICR mouse model at 10 mg/kg, ig administered daily via gavage for 8 weeks by western blotting analysis; type: functional, organism-based
HEK293 = test: Agonist activity at human PPAR-beta expressed in HEK293 cells co-transfected with luciferase reporter plasmid assessed as receptor transactivation at 10 uM incubated for 18 hrs by luciferase reporter gene assay relative to control; type: cell-based
Mus musculus [24] = test: Protection against hyperlipidemia in high fat diet-fed hyperlipidemic ICR mouse model assessed as normal and less pale colored liver at 10 to 20 mg/kg, ig administered daily via gavage for 8 weeks; type: functional, organism-based; conditions: dose 10-20 mg/kg
Mus musculus [25] = test: Protection against hyperlipidemia in high fat diet-fed hyperlipidemic ICR mouse model assessed as reduction in hepatic total cholesterol content at 10 mg/kg, ig administered daily via gavage for 8 weeks by colorimetric assay; type: functional; conditions: po, 1344 h
Mus musculus [26] = test: Upregulation of ABCG8 protein expression in liver of high fat diet fed hyperlipidemic ICR mouse model at 10 mg/kg, ig administered daily via gavage for 8 weeks by western blotting analysis; type: functional, organism-based

Structure (SMILES): CN1c2ccccc2C(=O)N2CCc3c([nH]c4ccccc34)C21 (configuration not stated)
- Activity [1]: Non-Toxic
- Activity (Mus musculus [2]): Active
- Activity (Mus musculus [3]): Active
- Activity (Mus musculus [4]): inactive
- Activity [5]: Non-Toxic
- fold change (FC) [6]: 0.49
- inhibition in vivo at 10 mg/kg (Mus musculus [7]): 50%
- Activity [8]: Non-Toxic
- Ratio [9]: 0.41
- Activity (Mus musculus [10]): Active
- Ratio [11]: 1.29
- Ratio [12]: 3.85
- Activity (Mus musculus [13]): Active
- Ratio [14]: 0.37
- Activity (Mus musculus [15]): inactive
- Activity (Mus musculus [16]): Active
- Activity (Mus musculus [17]): Active
- Activity (Mus musculus [18]): Active
- Activity [19]: Non-Toxic
- Activity (Mus musculus [20]): inactive
- Ratio [21]: 1.48
- inhibition in vivo at 10 mg/kg (Mus musculus [22]): 65.1%
- Activity (Mus musculus [23]): inactive
- fold change (FC) (HEK293): 1.53
- Activity (Mus musculus [24]): Active
- inhibition in vivo at 10 mg/kg (Mus musculus [25]): 42.3%
- Activity (Mus musculus [26]): inactive
